The assay has as its target T1, h KV1.5 (Homo sapiens, UniProt P22460).
T1 construct: h KV1.5 (KCNA5, NM_002234); expressed in transfected cells; host or cells: Xenopus laevis oocytes injected with cRNA
The assay can be described thus: TEVC recordings in X. laevis oocytes, KV1.5. It is filed as cell-based. To be noted: for Ionic current block IKur: from inhibition curves, used for simulation. On the procedure:
The two-electrode voltage clamp (TEVC) technique was used for electrophysiology tests. Channels were expressed in Xenopus laevis oocytes. The initial channel-blocking potential was assessed at 100 μM for the 10 synthesized compounds on TASK-1 and KV1.5 channels.
To obtain X. laevis oocytes, the frogs were anesthetized with 2 g/L of tricaine methanesulfonate, and the ovarian lobes were mechanically separated with forceps. The oocytes were incubated for 120 min in an OR2 solution containing in mM: NaCl 82.5, KCl 2, MgCl2 1, HEPES 5 (pH 7.5) supplemented with 2 mg/ml of collagenase II (Sigma) to remove residual connective tissue and obtain individual oocytes. Subsequently, the oocytes were washed with a ND96 solution containing in mM: NaCl 96, KCl 2, CaCl2 1.8, MgCl2 1, HEPES 5 (pH 7.5, adjusted with NaOH) and stored at 18 °C in ND96 solution supplemented with 1 ml of gentamicin (50 mg/L), sodium pyruvate (275 mg/L) and (90 mg/L) theophylline (inhibits further oocyte maturation) before and after RNA injection.
In order to overexpress the channel in the oocyte, each of the channels to be measured was subcloned (complementary DNA (cDNA); human TASK-1 (KCNK3, NM_002246), h KV1.5 (KCNA5, NM_002234), h NaV1.5 (hH1, M77235), TASK-4/TALK-2 (KCNK17, NM_AF358910), TREK-1 (KCNK2, AF004711) and Kir2.1 (KCNJ2, NM_017296) into pSGEM, pBF1 or pSP64 expression vector, and the cDNA was linearized with NheI or MluI. Complementary RNA (cRNA) was synthesized with the mMESSAGE mMACHINE-Kit (Ambion). The quality of the cRNA was tested on an agarose gel by electrophoresis. cRNA was quantified using a UV-Vis spectrophotometer (NanoDrop 2000). Subsequently, the channel was transfected in the oocytes in stages V and VI, for which […] (TASK-1, KV1.5 or TREK-1), 10 ng (NaV1.5 or TASK-4) o 2.5 ng (Kir2.1) per oocyte of cRNA was injected with a NanojectII microinjector (Drummond Scientific). The oocytes were stored in 24-well plates for 24 to 48 h at 18 °C. After this time, the overexpression of each channel was monitored through electrophysiology.
Two-electrode voltage clamp measurements were performed 24 or 48 h after cRNA injection at room temperature (20–22 °C) in ND96 recording solution with a TurboTEC-10CD (npi) amplifier and a Digidata 1550B (for TASK-1 and KV1.5) and 1440A (for NaV1.5) A/D converter from Axon Instruments. Micropipettes were fabricated from GB 150 TF-8P borosilicate glass capillaries (Science Products) elongated in a DMZ-Universal Puller (Zeitz, Germany). […] ND96 was used as bath solution. Data acquisition was performed using Clampex 10 software (Axon Instruments), and data were analyzed with ClampFit 10 (Axon Instruments) and Origin 7 (Origin Lab Corporation).
For compound inhibition testing, from a holding potential of −80 mV a first test pulse to 0 mV of 1 s duration was followed by a repolarization step at −80 mV for 1 s, directly followed by another 1 s test pulse at +40 mV. The sweep time interval was 10 s for KV1.5 and TASK-1 channels. For the NaV1.5 channel, the block was analyzed with voltage steps from a holding potential of −80 mV. A first depolarizing pulse to −30 mV of 50 ms duration was applied, followed by a 5 ms step to −80 mV. The sweep time interval was 5 s. The compounds were applied at different concentrations to determine the half-maximal inhibitory concentration (IC50), using a fit to the Hill equation.
To test for a putative voltage-dependence of the block by the compound 6f in KV1.5, a 1.5 s voltage step protocol from −80 to +80 mV with +20 mV increments was used. The holding potential was −80 mV and the sweep time interval was 10 s. Currents were analyzed at the end of the voltage pulse. For TASK-1, voltage-dependence of block was probed using a high-potassium solution (KD96) containing in mM: KCl 96, NaCl 2, CaCl2 1.8, MgCl2 1, HEPES 5, (pH 7.5, adjusted with KOH). From a holding potential of 0 mV, voltage was stepped from −80 mV to +80 mV for 1.5 s in +20 mV steps every 10 s. […]

Molecules are shown by their SMILES.

T1 sequence (P22460 whole entry): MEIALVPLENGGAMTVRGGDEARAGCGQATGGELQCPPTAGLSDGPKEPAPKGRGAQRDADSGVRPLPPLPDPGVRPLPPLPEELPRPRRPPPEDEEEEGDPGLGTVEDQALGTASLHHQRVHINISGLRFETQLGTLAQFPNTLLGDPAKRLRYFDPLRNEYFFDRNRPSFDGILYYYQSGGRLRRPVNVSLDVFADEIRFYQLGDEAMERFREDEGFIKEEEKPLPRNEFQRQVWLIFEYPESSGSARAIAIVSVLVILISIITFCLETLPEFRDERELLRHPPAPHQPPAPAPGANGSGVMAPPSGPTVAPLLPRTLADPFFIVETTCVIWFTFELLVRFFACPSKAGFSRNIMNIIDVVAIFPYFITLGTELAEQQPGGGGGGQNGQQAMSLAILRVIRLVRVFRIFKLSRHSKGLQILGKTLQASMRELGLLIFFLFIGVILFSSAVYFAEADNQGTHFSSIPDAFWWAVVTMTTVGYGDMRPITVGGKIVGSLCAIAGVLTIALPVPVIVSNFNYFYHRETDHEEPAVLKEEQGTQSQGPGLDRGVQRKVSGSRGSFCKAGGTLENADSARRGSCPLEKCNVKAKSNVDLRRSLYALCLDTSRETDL

Broadly, the inhibition is the relative decrease from the control value, in per cent. Read a high inhibition as a response far below the control. One may read the IC50 as the concentration that inhibits the measured activity by half. Read a high IC50 as lower potency. Consider `CCCCN(CCCC)CC(=O)Nc1ccc(OC)cc1OC` [Compound 6f, 2-(dibutylamine)-N-(2,4-dimethoxiphenyl)acetamide], for which the “Ionic current block IKur” value is listed as 0% (1 μM), 2.5% (10 μM) and 50% (100 μM). The compound also returned an inhibition at 100 µM (100 μM, +40 mV, oocytes, mean ± SD) of 55.8 ± 11.5%. Further, inhibition (X. laevis oocytes, TEVC, block at +40 mV) was half-maximal at 81.5 µM (IC50). Further, for the setting “oocytes, 100 μM”, the “Voltage-dependence of block of KV1.5” value was “no significant voltage-dependence”.

Values taken from publication PMC12131194, “Rational design, synthesis, and evaluation of novel polypharmacological compounds targeting NaV1.5, KV1.5, and K2P channels for atrial fibrillation” (The Journal of Biological Chemistry, 2025).
